Assay results taken from patent publication US20110009447A1, “Substituted Benzoic Acid Amides and Use thereof for the Inhibition of Angiogenesis” (priority 2001, published 2011).
Like-named read-outs stand apart in the source and are kept apart here.

What was measured:
VEGFR I (FLT) = VEGFR I (FLT) (Homo sapiens, UniProt P17948); test: Inhibition of FLT-1 kinase activity (33P-ATP, poly-(Glu4Tyr) phosphocellulose filter assay); format: biochemical
Method: (§1) • Stock solutions • Stock solution A: 3 mmol of ATP in water, pH 7.0 (−70° C.) • Stock solution B: g-33P-ATP 1 mCi/100 μl • Stock solution C: poly-(Glu4Tyr) 10 mg/ml in water Solution for dilutions • Substrate solvent: 10 mmol of DTT, 10 mmol of manganese chloride, 100 mmol of magnesium chloride • Enzyme solution: 120 mmol of tris/HCl, pH 7.5, 10 μM of sodium vanadium oxide
Then, it is washed several times in 0.1 M phosphoric acid. The filter paper is dried, coated with Meltilex and measured in a microbeta counter.

VEGFR II (KDR) = VEGFR II (KDR) (Homo sapiens, UniProt P35968); test: Inhibition of KDR kinase activity (33P-ATP, poly-(Glu4Tyr) phosphocellulose filter assay); format: biochemical; settings: poly-(Glu4Tyr) substrate, 10 minutes at room temperature
VEGFR II (KDR), sequence (P35968 20-1356, species assumed): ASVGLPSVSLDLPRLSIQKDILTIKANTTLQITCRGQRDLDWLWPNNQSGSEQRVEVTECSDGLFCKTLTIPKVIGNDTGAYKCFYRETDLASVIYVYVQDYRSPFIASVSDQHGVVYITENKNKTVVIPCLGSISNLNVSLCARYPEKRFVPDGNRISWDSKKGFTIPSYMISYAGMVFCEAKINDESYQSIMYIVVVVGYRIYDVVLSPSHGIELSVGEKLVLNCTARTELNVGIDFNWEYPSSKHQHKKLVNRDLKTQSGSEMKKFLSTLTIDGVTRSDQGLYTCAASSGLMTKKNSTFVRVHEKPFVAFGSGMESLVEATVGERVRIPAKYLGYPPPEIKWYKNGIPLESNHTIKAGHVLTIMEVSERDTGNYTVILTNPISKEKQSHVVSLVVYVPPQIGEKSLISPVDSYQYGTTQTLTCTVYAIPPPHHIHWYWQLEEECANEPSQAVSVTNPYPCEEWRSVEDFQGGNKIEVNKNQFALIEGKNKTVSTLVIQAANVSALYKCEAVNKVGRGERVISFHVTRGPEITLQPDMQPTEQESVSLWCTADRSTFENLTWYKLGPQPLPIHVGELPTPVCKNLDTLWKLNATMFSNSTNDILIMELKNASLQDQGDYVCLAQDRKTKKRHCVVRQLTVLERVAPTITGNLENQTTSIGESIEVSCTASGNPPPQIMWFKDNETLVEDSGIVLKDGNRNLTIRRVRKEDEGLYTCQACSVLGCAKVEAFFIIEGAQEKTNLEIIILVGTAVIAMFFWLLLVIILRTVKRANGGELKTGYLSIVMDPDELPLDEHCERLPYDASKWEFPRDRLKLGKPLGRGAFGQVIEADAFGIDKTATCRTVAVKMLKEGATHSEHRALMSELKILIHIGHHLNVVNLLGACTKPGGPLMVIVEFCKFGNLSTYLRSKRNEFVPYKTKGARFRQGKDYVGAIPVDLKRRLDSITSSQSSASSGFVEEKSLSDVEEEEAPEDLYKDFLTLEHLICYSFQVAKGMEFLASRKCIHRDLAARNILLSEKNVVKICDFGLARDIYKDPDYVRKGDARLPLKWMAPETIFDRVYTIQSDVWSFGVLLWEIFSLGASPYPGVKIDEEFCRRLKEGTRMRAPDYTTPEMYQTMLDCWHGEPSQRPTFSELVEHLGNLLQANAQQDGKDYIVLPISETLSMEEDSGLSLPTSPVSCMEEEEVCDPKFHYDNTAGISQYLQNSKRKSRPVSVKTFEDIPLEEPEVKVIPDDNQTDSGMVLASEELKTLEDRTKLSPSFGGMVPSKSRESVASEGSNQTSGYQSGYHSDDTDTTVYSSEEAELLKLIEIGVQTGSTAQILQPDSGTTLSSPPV
Method: as §1
In a microtiter plate (without protein binding) that tapers to a point, 10 μl of substrate mix (10 μl of volume of ATP stock solution A+25 μCi of g-33P-ATP (about 2.5 μl of stock solution B)+30 μl of poly-(Glu4Tyr) stock solution C+1.21 ml of substrate solvent), 10 μl of inhibitor solution (substances corresponding to the dilutions, 3% DMSO in substrate solvent as a control) and 10 μl of enzyme solution (11.25 μg of enzyme stock solution (KDR or FLT-1 kinase) are added at 4° C. in 1.25 ml of enzyme solution (dilute). It is thoroughly mixed and incubated for 10 minutes at room temperature. Then, 10 μl of stop solution (250 mmol of EDTA, pH 7.0) is added, mixed, and 10 μl of the solution is transferred to a P 81 phosphocellulose filter. Then, it is washed several times in 0.1 M phosphoric acid. The filter paper is dried, coated with Meltilex and measured in a microbeta counter.
The IC50 values are determined from the inhibitor concentration, which is necessary to inhibit the phosphate incorporation to 50% of the uninhibited incorporation after removal of the blank reading (EDTA-stopped reaction).

[1] = FLT-1 kinase, poly-(Glu4Tyr) substrate, 10 minutes at room temperature, read-out: kinase inhibition IC50 VEGFR I (FLT)

VEGFR I (FLT), sequence (P17948 27-1338, species assumed): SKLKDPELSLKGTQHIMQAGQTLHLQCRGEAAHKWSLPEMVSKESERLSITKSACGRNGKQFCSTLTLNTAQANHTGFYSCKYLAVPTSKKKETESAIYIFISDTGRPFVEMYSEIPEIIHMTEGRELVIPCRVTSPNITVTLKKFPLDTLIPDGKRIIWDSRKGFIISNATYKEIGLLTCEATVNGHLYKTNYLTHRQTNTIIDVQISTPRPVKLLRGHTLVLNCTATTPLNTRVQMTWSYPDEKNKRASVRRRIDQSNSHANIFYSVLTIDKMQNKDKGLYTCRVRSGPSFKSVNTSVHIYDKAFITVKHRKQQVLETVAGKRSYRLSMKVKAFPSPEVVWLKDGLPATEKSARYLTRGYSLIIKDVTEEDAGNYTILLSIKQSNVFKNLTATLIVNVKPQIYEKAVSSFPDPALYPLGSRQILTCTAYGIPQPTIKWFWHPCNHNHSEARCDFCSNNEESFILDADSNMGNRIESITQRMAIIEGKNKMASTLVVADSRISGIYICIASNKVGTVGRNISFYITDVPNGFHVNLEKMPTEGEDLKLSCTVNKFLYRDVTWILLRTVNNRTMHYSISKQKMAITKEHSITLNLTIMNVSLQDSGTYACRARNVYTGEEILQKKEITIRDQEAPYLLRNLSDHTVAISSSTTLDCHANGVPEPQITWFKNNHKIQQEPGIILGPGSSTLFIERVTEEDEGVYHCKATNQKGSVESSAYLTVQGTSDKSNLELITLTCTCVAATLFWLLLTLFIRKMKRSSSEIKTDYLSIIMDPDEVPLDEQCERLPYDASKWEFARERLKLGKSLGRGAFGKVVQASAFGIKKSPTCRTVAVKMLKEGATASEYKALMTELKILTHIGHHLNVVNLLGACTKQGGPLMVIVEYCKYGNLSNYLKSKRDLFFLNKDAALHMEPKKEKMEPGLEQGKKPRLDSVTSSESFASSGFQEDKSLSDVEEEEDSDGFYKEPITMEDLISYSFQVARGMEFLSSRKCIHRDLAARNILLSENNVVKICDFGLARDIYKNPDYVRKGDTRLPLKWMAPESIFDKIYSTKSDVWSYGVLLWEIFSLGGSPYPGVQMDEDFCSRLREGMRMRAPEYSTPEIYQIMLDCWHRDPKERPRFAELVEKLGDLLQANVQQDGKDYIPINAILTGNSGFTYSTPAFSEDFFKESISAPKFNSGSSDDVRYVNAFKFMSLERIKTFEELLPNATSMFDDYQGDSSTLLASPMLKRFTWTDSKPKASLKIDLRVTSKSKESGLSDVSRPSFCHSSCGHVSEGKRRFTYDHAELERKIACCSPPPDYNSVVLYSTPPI

**Q.** With CCCc1ccc(NC(=O)c2ccccc2CCc2ccncc2)cc1 [Example 1.1] as the compound, how does the IC50 (VEGFR I (FLT)) read?
**A.** The IC50 was 200 nM.

**Q.** What about the IC50 (VEGFR II (KDR)) of the same compound?
**A.** The IC50 was 200 nM.

**Q.** With COc1ccc(/C=C\c2ccccc2C(=O)Nc2ccc(Cl)cc2)cc1 [Example 1.57] as the compound, how does the IC50 (VEGFR I (FLT); [1]) read?
**A.** The IC50 was 200 nM.

**Q.** And the IC50 (VEGFR II (KDR))?
**A.** The IC50 was 200 nM.

**Q.** What about the melting point of the same compound?
**A.** The melting point was 137.9 °C.

**Q.** Which results are given for O=C(NCC1CCCCC1)c1ccccc1CCc1ccncc1 [Example 1.31]?
**A.** IC50 (VEGFR I (FLT); [1]): 200 nM; IC50 (VEGFR II (KDR)): 400 nM; melting point: 105 to 107 °C

**Q.** For CCCCCCCNC(=O)c1ccccc1/C=C\c1ccc(OC)cc1 [Example 1.64], which IC50 (VEGFR I (FLT); [1]) is on record?
**A.** The IC50 was 200 nM.

**Q.** What about the IC50 (VEGFR II (KDR)) of the same compound?
**A.** The IC50 was 300 nM.

**Q.** What does the source list for COc1ccc(/C=C\c2ccccc2C(=O)Nc2cnc3ccccc3c2)cc1 [Example 1.60]?
**A.** IC50 (VEGFR I (FLT); [1]): 2000 nM; IC50 (VEGFR II (KDR)): 500 nM

**Q.** Which IC50 (VEGFR I (FLT); [1]) does the source give for O=C(Nc1ccc(Cl)cc1)c1cccc(C#Cc2cccnc2)c1 [Example 1.54] here?
**A.** The IC50 was 50 nM.

**Q.** What about the IC50 (VEGFR II (KDR)) of the same compound?
**A.** Its IC50 is 500 nM.

**Q.** What about the melting point of the same compound?
**A.** Its melting point is 179 °C.

**Q.** With COc1ccc(CCc2ccccc2C(=O)Nc2cnc3ccccc3c2)cc1 [Example 1.89] as the compound, how does the IC50 (VEGFR I (FLT); [1]) read?
**A.** The IC50 was 2000 nM.

**Q.** And the IC50 (VEGFR II (KDR))?
**A.** Its IC50 is 300 nM.

**Q.** For CCCc1ccc(NC(=O)c2ccccc2CCc2ccc(OC)cc2)cc1 [Example 1.67], which IC50 (VEGFR II (KDR)) is on record?
**A.** Its IC50 is 5000 nM.

**Q.** What about the melting point of the same compound?
**A.** The melting point was 113.7 °C.
